Where “and” joins values, the source holds several entries; their conditions need not be identical. Identical values can stand only once. Toxic doses and inconclusive results are not listed. How the source made its calls: active means survival T/C of 150% or more; inactive means T/C below 125% in these data.
Test system: P388 leukemia ip, CD2F1 mice, survival T/C
Experiment: NCI In Vivo Anticancer Drug Screen. Data for tumor model P388 Leukemia (intraperitoneal) in CD2F1 (CDF1) mice
Settings: endpoint: median survival time, higher = longer survival
Method in brief: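 Mice carrying the transplanted tumor received test compound or vehicle. Survival was recorded in each group, and the value is the treated-group measurement divided by that of the vehicle-treated control group.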

[1] = dose: 60.0 mg/kg/injection, schedule: Q01DX005 (ip), vehicle: saline with Tween-80
[2] = dose: 120.0 mg/kg/injection, schedule: Q01DX005 (ip), vehicle: saline with Tween-80
[3] = dose: 50.0 mg/kg/injection, schedule: Q01DX005 (ip), vehicle: Klucel (hydroxypropylcellulose) (HPC)
[4] = dose: 60.0 mg/kg/injection, schedule: Q01DX005 (ip), vehicle: Klucel (hydroxypropylcellulose) (HPC)
[5] = dose: 120.0 mg/kg/injection, schedule: Q01DX005 (ip), vehicle: Klucel (hydroxypropylcellulose) (HPC)
[6] = dose: 50.0 mg/kg/injection, schedule: Q01DX009 (ip), vehicle: saline with Tween-80
[7] = dose: 100.0 mg/kg/injection, schedule: Q01DX009 (ip), vehicle: saline with Tween-80
[8] = dose: 200.0 mg/kg/injection, schedule: Q01DX009 (ip), vehicle: saline with Tween-80
[9] = dose: 50.0 mg/kg/injection, schedule: Q01DX005 (ip), vehicle: saline with Tween-80
[10] = dose: 100.0 mg/kg/injection, schedule: Q01DX005 (ip), vehicle: saline with Tween-80
[11] = dose: 25.0 mg/kg/injection, schedule: Q01DX009 (ip), vehicle: saline with Tween-80
[12] = dose: 100.0 mg/kg/injection, schedule: Q01DX001 (ip), vehicle: saline with Tween-80
[13] = dose: 200.0 mg/kg/injection, schedule: Q01DX001 (ip), vehicle: saline with Tween-80

Measured: T/C

C=C1[C@H]2C[C@H]2[C@]2(C)C[C@@H]3OC(=O)C(C)=C3C[C@@H]12
inactive: dose: 4.88 mg/kg/injection, schedule: Q01DX005 (ip), vehicle: Klucel (hydroxypropylcellulose) (HPC) 89 % of control | dose: 9.75 mg/kg/injection, schedule: Q01DX005 (ip), vehicle: Klucel (hydroxypropylcellulose) (HPC) 94 % of control | dose: 39.0 mg/kg/injection, schedule: Q01DX005 (ip), vehicle: Klucel (hydroxypropylcellulose) (HPC) 94 % of control | dose: 78.0 mg/kg/injection, schedule: Q01DX005 (ip), vehicle: Klucel (hydroxypropylcellulose) (HPC) 94 % of control

OCCN1CCN(C2=Nc3cccnc3Nc3cscc32)CC1
inactive: [1] 101 % of control | [2] 111 % of control | dose: 240.0 mg/kg/injection, schedule: Q01DX005 (ip), vehicle: saline with Tween-80 96 % of control

COc1ccc2ncc(COC(=O)Nc3ccccc3)c(COC(=O)Nc3ccccc3)c2c1
inactive: dose: 12.5 mg/kg/injection, schedule: Q01DX005 (ip), vehicle: Klucel (hydroxypropylcellulose) (HPC) 102 % of control and 106 % of control | dose: 25.0 mg/kg/injection, schedule: Q01DX005 (ip), vehicle: Klucel (hydroxypropylcellulose) (HPC) 100 % of control and 94 % of control | [3] 100 % of control and 95 % of control and 97 % of control

CCCCc1cc2ccccc2c(OCCN(C)C)n1
inactive: dose: 50.0 mg/kg/injection, schedule: Q01DX005 (ip), vehicle: saline 97 % of control | dose: 100.0 mg/kg/injection, schedule: Q01DX005 (ip), vehicle: saline 115 % of control | dose: 200.0 mg/kg/injection, schedule: Q01DX005 (ip), vehicle: saline 111 % of control

CC1=CC(=Nc2cc(Br)c(O)c(Br)c2)C=CC1=O
inactive: dose: 6.25 mg/kg/injection, schedule: Q01DX005 (ip), vehicle: saline 100 % of control | dose: 12.5 mg/kg/injection, schedule: Q01DX005 (ip), vehicle: saline 100 % of control | dose: 25.0 mg/kg/injection, schedule: Q01DX005 (ip), vehicle: saline 105 % of control

O=C(C(=O)C(F)(F)C(F)(F)C(F)(F)F)c1ccccc1
inactive: dose: 50.0 mg/kg/injection, schedule: Q01DX005 (ip), vehicle: saline + Tween-80 + alcohol 102 % of control | dose: 100.0 mg/kg/injection, schedule: Q01DX005 (ip), vehicle: saline + Tween-80 + alcohol 97 % of control

CC1(C#N)N=C(c2ccccc2)c2ccccc2N1C(=O)Oc1ccccc1 (configuration not stated)
inactive: [1] 98 % of control | [2] 98 % of control

Cc1nc2nc[nH]n2c1N=Nc1ccccc1
inactive: [4] 98 % of control | [5] 95 % of control | dose: 240.0 mg/kg/injection, schedule: Q01DX005 (ip), vehicle: Klucel (hydroxypropylcellulose) (HPC) 107 % of control

CCOC(=O)c1ccc(C(=O)OCC)nc1
inactive: dose: 25.0 mg/kg/injection, schedule: Q01DX001 (ip), vehicle: saline 100 % of control | dose: 50.0 mg/kg/injection, schedule: Q01DX001 (ip), vehicle: saline 100 % of control | dose: 100.0 mg/kg/injection, schedule: Q01DX001 (ip), vehicle: saline 100 % of control

CC(=O)NCCCCCC(=O)N(C)C
inactive: [3] 96 % of control | dose: 100.0 mg/kg/injection, schedule: Q01DX005 (ip), vehicle: Klucel (hydroxypropylcellulose) (HPC) 90 % of control | dose: 200.0 mg/kg/injection, schedule: Q01DX005 (ip), vehicle: Klucel (hydroxypropylcellulose) (HPC) 98 % of control | dose: 400.0 mg/kg/injection, schedule: Q01DX005 (ip), vehicle: Klucel (hydroxypropylcellulose) (HPC) 98 % of control

CCN(CC)CC(=O)c1ccc(O)c(O)c1
inactive: [6] 91 % of control | [7] 98 % of control and 106 % of control | [8] 112 % of control and 123 % of control | dose: 400.0 mg/kg/injection, schedule: Q01DX009 (ip), vehicle: saline with Tween-80 116 % of control and 117 % of control

Cn1c(=O)c2[nH]c(Cc3ccc4c(c3)OCO4)nc2n(C)c1=O
inactive: dose: 1.56 mg/kg/injection, schedule: Q01DX009 (ip), vehicle: Klucel (hydroxypropylcellulose) (HPC) 98 % of control | dose: 3.13 mg/kg/injection, schedule: Q01DX009 (ip), vehicle: Klucel (hydroxypropylcellulose) (HPC) 97 % of control | dose: 6.25 mg/kg/injection, schedule: Q01DX009 (ip), vehicle: Klucel (hydroxypropylcellulose) (HPC) 95 % of control | dose: 12.5 mg/kg/injection, schedule: Q01DX009 (ip), vehicle: Klucel (hydroxypropylcellulose) (HPC) 101 % of control | dose: 25.0 mg/kg/injection, schedule: Q01DX009 (ip), vehicle: Klucel (hydroxypropylcellulose) (HPC) 104 % of control | dose: 50.0 mg/kg/injection, schedule: Q01DX009 (ip), vehicle: Klucel (hydroxypropylcellulose) (HPC) 87 % of control | dose: 100.0 mg/kg/injection, schedule: Q01DX009 (ip), vehicle: Klucel (hydroxypropylcellulose) (HPC) 107 % of control | dose: 200.0 mg/kg/injection, schedule: Q01DX009 (ip), vehicle: Klucel (hydroxypropylcellulose) (HPC) 100 % of control

O=C1CN(c2cccc(C(F)(F)F)c2)C(=O)CN1/N=C/c1ccc[nH]1
inactive: [9] 101 % of control | [10] 100 % of control | dose: 200.0 mg/kg/injection, schedule: Q01DX005 (ip), vehicle: saline with Tween-80 99 % of control

COc1ccc2c3c([nH]c2c1[N+](=O)[O-])C(C)N(C)CC3 (configuration not stated)
inactive: dose: 8.5 mg/kg/injection, schedule: Q01DX005 (ip), vehicle: Klucel (hydroxypropylcellulose) (HPC) 107 % of control | dose: 17.0 mg/kg/injection, schedule: Q01DX005 (ip), vehicle: Klucel (hydroxypropylcellulose) (HPC) 101 % of control

C=CCn1c(-c2cccc(O)c2)n[nH]c1=S
inactive: [11] 104 % of control | [6] 115 % of control | [7] 96 % of control

COC(C(=O)C(O)C(C)O)C1CC2C=C3C=C(OC4CC(OC5CC(O)C(OC)C(C)O5)C(OC(C)=O)C(C)O4)C(C)C(=O)C3=C(O)C2=C(O)C1OC1CC(OC2CC(OC3CC(C)(O)C(OC(=O)C(C)C)C(C)O3)C(O)C(C)O2)C(O)C(C)O1 (configuration not stated)
active: dose: 1.0 micrograms/kg/injection, schedule: Q01DX010 (ip), vehicle: saline 150 % of control | dose: 4.0 micrograms/kg/injection, schedule: Q01DX010 (ip), vehicle: saline 165 % of control | dose: 8.0 micrograms/kg/injection, schedule: Q01DX010 (ip), vehicle: saline 175 % of control | dose: 16.0 micrograms/kg/injection, schedule: Q01DX010 (ip), vehicle: saline 155 % of control

O=C1CSC(=S)N1c1ccco1
inactive: [7] 100 % of control | [8] 100 % of control

COC1C(O)CC(OC2CC(OC3CC(O[C@@H]4C(=O)c5c(cc6cc(OC7CC(OC8CC(O)C(O)C(C)O8)C(O)C(C)O7)c(C)c(O)c6c5O)C[C@H]4[C@H](OC)C(=O)[C@@H](O)[C@@H](C)O)OC(C)C3O)OC(C)C2O)OC1C (some centres not stated)
active: dose: 1500.0 micrograms/kg/injection, schedule: Q01DX009 (ip), vehicle: saline 170 % of control
inactive: dose: 375.0 micrograms/kg/injection, schedule: Q01DX009 (ip), vehicle: saline 121 % of control

Oc1cc2ccccc2c(-c2c(O)c(O)cc3ccccc23)c1O
inactive: dose: 25.0 mg/kg/injection, schedule: Q01DX005 (ip), vehicle: saline with Tween-80 111 % of control | [9] 113 % of control | [12] 113 % of control and 115 % of control | [10] 112 % of control | [13] 113 % of control and 121 % of control | dose: 600.0 mg/kg/injection, schedule: Q01DX001 (ip), vehicle: saline with Tween-80 124 % of control

C[C@@H]1CC2=CC(=O)CC[C@@H]2[C@H]2CC[C@@]3(C)[C@@H](CC[C@]3(C)O)[C@@H]21
inactive: [11] 100 % of control | dose: 25.0 mg/kg/injection, schedule: Q04DX003 (ip), vehicle: saline with Tween-80 100 % of control | [6] 105 % of control | dose: 50.0 mg/kg/injection, schedule: Q04DX003 (ip), vehicle: saline with Tween-80 91 % of control | [7] 105 % of control | dose: 100.0 mg/kg/injection, schedule: Q04DX003 (ip), vehicle: saline with Tween-80 104 % of control | dose: 200.0 mg/kg/injection, schedule: Q04DX003 (ip), vehicle: saline with Tween-80 100 % of control | dose: 400.0 mg/kg/injection, schedule: Q04DX003 (ip), vehicle: saline with Tween-80 90 % of control

COc1ccc(-n2cnc3c(cnn3CN3CCCCC3)c2=O)cc1
inactive: [4] 104 % of control | [5] 103 % of control

CC/C(C)=N\Nc1cc(C)[nH]c(=O)c1
inactive: [12] 105 % of control | [13] 100 % of control | dose: 400.0 mg/kg/injection, schedule: Q01DX001 (ip), vehicle: saline with Tween-80 91 % of control

Source: PubChem BioAssay AID330 (DTP/NCI, 2004)
